Read-outs that look alike come from different tables or passages of the source.
Legend:
[1] = system: Key Broadleaf Weed and Crop Species; test: Post-emergent Test II herbicidal activity (Table 5); format: in vivo; conditions: post-emergence, 336 h, 14 days after application; for pest or weed control at 70 g/ha: application rate 70 g ai/ha; for pest or weed control at 140 g/ha: application rate 140 g ai/ha
Outline: (§1)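 Greenhouse-grown plants at first or second true leaf stage were sprayed post-emergence with compound in acetone/DMSO-based aqueous spray containing crop oil concentrate and surfactant, at 187 L/ha, highest rate plus ½× to 1/16× dilutions. After 14 d, injury was scored visually versus untreated plants, 0 (none) to 100% (complete kill).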

[2] = system: Key Grass and Sedge Weeds as well as Grass Crops; test: Post-emergent Test II herbicidal activity (Table 6); format: in vivo; conditions: post-emergence, 336 h; for pest or weed control at 70 g/ha: 70 g ai/ha; for pest or weed control at 140 g/ha: 140 g ai/ha
Outline: as §1

[3] = ABUTH: velvetleaf (Abutilon theophrasti), read-out: Visual Growth Reduction (%) 14 Days After Application, ABUTH
[4] = AMARE: redroot pigweed (Amaranthus retroflexus), read-out: Visual Growth Reduction (%) 14 Days After Application, AMARE
[5] = BRSNN: oilseed-rape, canola (Brassica napus), read-out: Visual Growth Reduction (%) 14 Days After Application, BRSNN
[6] = CHEAL: lambsquarters (Chenopodium album), read-out: Visual Growth Reduction (%) 14 Days After Application, CHEAL
[7] = EPHHL: wild poinsettia (Euphorbia heterophylla), read-out: Visual Growth Reduction (%) 14 Days After Application, EPHHL
[8] = HELAN: sunflower (Helianthus annuus), read-out: Visual Growth Reduction (%) 14 Days After Application, HELAN
[9] = VIOTR: wild pansy (Viola tricolor), read-out: Visual Growth Reduction (%) 14 Days After Application, VIOTR
[10] = CYPES: yellow nutsedge (Cyperus esculentus), read-out: Visual Growth Reduction (%) 14 Days After Application, CYPES
[11] = DIGSA: crabgrass (Digitaria sanguinalis), read-out: Visual Growth Reduction (%) 14 Days After Application, DIGSA
[12] = ECHCG: barnyardgrass (Echinochloa crus-galli), read-out: Visual Growth Reduction (%) 14 Days After Application, ECHCG
[13] = ORYSA: rice (Oryza sativa), crop, read-out: Visual Growth Reduction (%) 14 Days After Application, ORYSA
[14] = SETFA: giant foxtail (Setaria faberi), read-out: Visual Growth Reduction (%) 14 Days After Application, SETFA
[15] = SORVU: grain sorghum (Sorghum vulgare), read-out: Visual Growth Reduction (%) 14 Days After Application, SORVU
[16] = TRZSS (wheat, Triticum aestivum), crop, read-out: Visual Growth Reduction (%) 14 Days After Application, TRZSS
[17] = ZEAMX: maize, corn (Zea mays), crop, read-out: Visual Growth Reduction (%) 14 Days After Application, ZEAMX

COC(=O)c1nc(-c2ccccc2)c(F)c(N)c1Cl [Compound 181]
pest or weed control at 70 g/ha [1, 3]: 95 to 100%
pest or weed control at 140 g/ha [1, 3]: 95 to 100%
pest or weed control at 70 g/ha [1, 4]: 85 to 94%
pest or weed control at 140 g/ha [1, 4]: 95 to 100%
pest or weed control at 70 g/ha [1, 5]: 85 to 94%
pest or weed control at 140 g/ha [1, 5]: 95 to 100%
pest or weed control at 70 g/ha [1, 6]: 95 to 100%
pest or weed control at 140 g/ha [1, 6]: 95 to 100%
pest or weed control at 70 g/ha [1, 7]: 85 to 94%
pest or weed control at 140 g/ha [1, 7]: 95 to 100%
pest or weed control at 70 g/ha [1, 8]: 95 to 100%
pest or weed control at 140 g/ha [1, 8]: 95 to 100%
pest or weed control at 70 g/ha [1, 9]: 0 to 29%
pest or weed control at 140 g/ha [1, 9]: 0 to 29%
pest or weed control at 70 g/ha [2, 10]: 95 to 100%
pest or weed control at 140 g/ha [2, 10]: 95 to 100%
pest or weed control at 70 g/ha [2, 11]: 0 to 29%
pest or weed control at 140 g/ha [2, 11]: 0 to 29%
pest or weed control at 70 g/ha [2, 12]: 0 to 29%
pest or weed control at 140 g/ha [2, 12]: 0 to 29%
pest or weed control at 70 g/ha [2, 13]: 0 to 29%
pest or weed control at 140 g/ha [2, 13]: 0 to 29%
pest or weed control at 70 g/ha [2, 14]: 0 to 29%
pest or weed control at 140 g/ha [2, 14]: 0 to 29%
pest or weed control at 70 g/ha [2, 15]: 0 to 29%
pest or weed control at 140 g/ha [2, 15]: 30 to 44%
pest or weed control at 70 g/ha [2, 16]: 0 to 29%
pest or weed control at 140 g/ha [2, 16]: 0 to 29%
pest or weed control at 70 g/ha [2, 17]: 0 to 29%
pest or weed control at 140 g/ha [2, 17]: 30 to 44%
